Test results published in US12162867B2, “Inhibitors of RNA helicase DHX9 and uses thereof” (ACCENT THERAPEUTICS, INC., priority 2022, dated 2024).

Legend:
[1] = test system: circBRIP1 in HCT116 cells; assay: DHX9 circBRIP1 cellular target engagement TaqMan Multiplex assay (qPCR); format: cell-based; conditions: Homo sapiens
[2] = test system: circBRIP1 in HCT116 cells; assay: DHX9 circBRIP1 cellular target engagement SYBR Green assay (qPCR); format: cell-based; conditions: Homo sapiens, HCT-116, circBRIP1, HCT116 cells; ^+ SyBr assay was used; read-out: DHX9 Cellular Target Engagement EC50
[3] = HCT-116, 72 h, circBRIP1, HCT116 cells, 72 hours, Taqman assay (marked *), read-out: DHX9 Cellular Target Engagement EC50
[4] = HCT-116, circBRIP1, HCT116 cells, * Taqman assay was used, read-out: DHX9 Cellular Target Engagement EC50
[5] = HCT-116, read-out: DHX9 Cellular Target Engagement EC50 (μM)

Cc1cc(F)cnc1-c1cc(C(=O)Nc2cc(Cl)cc(NS(C)(=O)=O)c2)sc1C [Example 348]
EC50 [1, 3]: 0.228 µM

CCS(=O)(=O)Nc1cc(Cl)cc(NC(=O)c2cc(-c3ncc(F)cc3C)c(C)s2)c1 [Example 350]
EC50 [1, 3]: 0.257 µM

CCS(=O)(=O)Nc1cc(Cl)cc(NC(=O)c2cc(-c3ncc(F)cc3Cl)c(C)s2)c1 [Example 355]
EC50 [1, 3]: 0.362 µM

Cc1sc(C(=O)Nc2cc(Cl)cc(NS(C)(=O)=O)c2)cc1-c1ncc(C(F)(F)F)cn1 [Example 357]
EC50 [1, 3]: 0.119 µM

Cc1sc(C(=O)Nc2cc(Cl)cc(NS(C)(=O)=O)c2)cc1-c1ncc(F)cc1Cl [Example 359]
EC50 [1, 3]: 0.13 µM

Cc1sc(C(=O)Nc2cc(Cl)cc(NS(C)(=O)=O)c2)cc1-c1c(F)cncc1F [Example 362]
EC50 [1, 3]: 0.124 µM

Cn1cc(C(=O)Nc2cc(Cl)cc(NS(C)(=O)=O)c2)cc1-c1ncc(F)cc1OC(F)F [Example 363]
EC50 [1, 3]: 0.171 µM

COc1cnc(-c2cc(C(=O)Nc3cc(Cl)cc(NS(C)(=O)=O)c3)sc2C)c(Cl)c1 [Example 364]
EC50 [1, 3]: 0.387 µM

CCS(=O)(=O)Nc1cc(Cl)cc(NC(=O)c2cc(-c3ncc(C(F)(F)F)cn3)c(C)s2)c1 [Example 366]
EC50 [1, 3]: 0.128 µM

Cc1sc(C(=O)Nc2cc(Cl)cc(NS(C)(=O)=O)c2)cc1-c1ncc(C(F)(F)F)cc1C#N [Example 367]
EC50 [1, 3]: 0.219 µM

Cc1sc(C(=O)Nc2cc(Cl)cc(NS(C)(=O)=O)c2)cc1-c1ncc(C(F)(F)F)cc1F [Example 368]
EC50 [1, 3]: 0.31 µM

CS(=O)(=O)Nc1cc(Cl)cc(NC(=O)c2cc(-c3ccc(C(F)(F)F)cn3)cs2)c1 [Example 370]
EC50 [1, 3]: 0.171 µM

CS(=O)(=O)Nc1cc(Cl)cc(NC(=O)c2cc(-c3ncc(C(F)(F)F)cc3F)cs2)c1 [Example 371]
EC50 [1, 3]: 0.311 µM

CCCS(=O)(=O)Nc1cc(Cl)cc(NC(=O)c2cc(-c3ncccc3C)cs2)c1 [Example 372]
EC50 [1, 3]: 2.12 µM

Cc1cccnc1-c1csc(C(=O)Nc2cc(Cl)cc(NS(=O)(=O)C(C)C)c2)c1 [Example 373]
EC50 [1, 3]: 0.506 µM

Cc1cccnc1-c1csc(C(=O)Nc2cc(Cl)cc(N(C)S(C)(=O)=O)c2)c1 [Example 374]
EC50 [1, 3]: > 10 µM

Cc1sc(C(=O)Nc2cc(Cl)cc(NS(C)(=O)=O)c2)cc1-c1ncc(C#N)cc1F [Example 375]
EC50 [1, 3]: 0.68 µM

Cc1sc(C(=O)Nc2cc(Cl)cc(NS(C)(=O)=O)c2)cc1-c1c(F)cc(F)cc1F [Example 378]
EC50 [1, 3]: 0.361 µM

Cc1cccnc1-c1ccc(C(=O)Nc2cc(Cl)cc(NS(C)(=O)=O)c2)s1 [Example 386]
EC50 [1, 3]: 1.97 µM

Cc1cc(C(=O)Nc2cc(Cl)cc(NS(C)(=O)=O)c2)cn1-c1ncc(N2CCCC2=O)cn1 [Example 401]
EC50 [1, 4]: 0.135 µM

Cc1cc(C(=O)Nc2cc(Cl)cc(NS(C)(=O)=O)c2)cn1-c1ncc(N2CC(F)(F)C2)cc1Cl [Example 406]
EC50 [1, 4]: 0.161 µM

Cc1cc(C(=O)Nc2cc(Cl)cc(NS(C)(=O)=O)c2)cn1-c1ncc(N2CC(F)(F)C2)cc1C(F)(F)F [Example 407]
EC50 [1, 4]: 0.517 µM

Cc1cc(C(=O)Nc2cc(Cl)cc(NS(C)(=O)=O)c2)cn1-c1ncc(N2CCC(F)(F)C2)cn1 [Example 409]
EC50 [1, 4]: 0.177 µM

Cc1cc(C(=O)Nc2cc(Cl)cc(NS(C)(=O)=O)c2)cn1-c1ncc(N2CCC3(C2)CC3(F)F)cc1F (centres unmarked) [Example 414]
EC50 [1, 4]: 0.128 µM

Cc1cc(C(=O)Nc2cc(Cl)cc(NS(C)(=O)=O)c2)cn1-c1ccc(N2CCOC2=O)cn1 [Example 416]
EC50 [1, 4]: 0.133 µM

Cc1cc(C(=O)Nc2cc(Cl)cc(NS(C)(=O)=O)c2)cn1-c1ncc(N2CCOC2=O)cn1 [Example 417]
EC50 [1, 4]: 0.223 µM

Cc1cc(N2CC(F)(F)C2)cnc1-n1cc(C(=O)Nc2cc(Cl)cc(NS(C)(=O)=O)c2)cc1C [Example 419]
EC50 [1, 4]: 0.121 µM

Cc1cc(C(=O)Nc2cc(Cl)cc(NS(C)(=O)=O)c2)cn1-c1ncc(F)cc1F [Example 444]
EC50 [1, 4]: 0.16 µM

CCS(=O)(=O)Nc1cc(Cl)cc(NC(=O)c2cc(C)n(-c3ncc(F)cc3F)c2)c1 [Example 445]
EC50 [1, 4]: 0.319 µM

CCS(=O)(=O)Nc1cc(Cl)cc(NC(=O)c2cc(C)n(-c3ncc(F)cc3Cl)c2)c1 [Example 446]
EC50 [1, 4]: 0.966 µM

CS(=O)(=O)Nc1cc(Cl)cc(NC(=O)c2cc(-c3ncc(F)cn3)c(Cl)s2)c1 [Example 450]
EC50 [1, 4]: 0.266 µM

CC(C)Oc1cnc(-c2csc(C(=O)Nc3cc(Cl)cc(NS(C)(=O)=O)c3)c2)c(F)c1 [Example 458]
EC50 [1, 4]: 0.199 µM

Cc1cc(N2CC(F)(F)C2)cnc1-c1cc(C(=O)Nc2cc(Cl)cc(NS(C)(=O)=O)c2)cn1C [Example 461]
EC50 [1, 4]: 0.158 µM

Cc1sc(C(=O)Nc2cc(Cl)cc(NS(C)(=O)=O)c2)cc1-c1ncc(N2CCC3(CC2)CC3)cc1F [Example 467]
EC50 [1, 4]: 0.164 µM

Cn1cc(C(=O)Nc2cc(Cl)cc(NS(C)(=O)=O)c2)cc1-c1ncc(N2CCC3(CC2)CC3)cc1F [Example 468]
EC50 [1, 4]: 0.269 µM

Cn1cc(C(=O)Nc2cc(Cl)cc(NS(C)(=O)=O)c2)cc1-c1ncc(N2CC[Si](C)(C)CC2)cc1F [Example 470]
EC50 [1, 5]: 0.62 µM

Cn1cc(C(=O)Nc2cc(Cl)cc(NS(C)(=O)=O)c2)cc1-c1ncc(N2CCC(C(F)(F)F)CC2)cc1F [Example 472]
EC50 [1, 4]: 0.127 µM

Cc1sc(C(=O)Nc2cc(Cl)cc(NS(C)(=O)=O)c2)cc1-c1ncc(N2CC[Si](C)(C)CC2)cc1F [Example 473]
EC50 [1, 5]: 0.426 µM

Cc1sc(C(=O)Nc2cc(Cl)cc(NS(C)(=O)=O)c2)cc1-c1ncc(N2CCC(C(F)(F)F)CC2)cc1F [Example 481]
EC50 [1, 4]: 0.128 µM

CS(=O)(=O)Nc1cc(Cl)cc(NC(=O)c2cc(-c3ccc(N4CC(F)(F)C4)cn3)cs2)c1 [Example 487]
EC50 [1, 4]: 0.654 µM

CS(=O)(=O)Nc1cc(Cl)cc(NC(=O)c2cc(-c3ncc(N4CC(F)(F)C4)cc3F)cs2)c1 [Example 488]
EC50 [1, 4]: 0.285 µM

Cn1cc(C(=O)Nc2cc(Cl)cc(NS(C)(=O)=O)c2)cc1-c1ccc(N2CCC3(C2)CC3(F)F)cn1 (centres unmarked) [Example 495]
EC50 [1, 4]: 0.142 µM

Cn1cc(C(=O)Nc2cc(Cl)cc(NS(C)(=O)=O)c2)cc1-c1ccc(N2CC3(C2)CC(F)(F)C3)cn1 [Example 498]
EC50 [1, 4]: 0.131 µM

Cc1sc(C(=O)Nc2cc(Cl)cc(NS(C)(=O)=O)c2)cc1-c1ncc(F)cc1N1CCS(=O)(=O)CC1 [Example 503]
EC50 [1, 4]: 9.03 µM

CC(=O)N1CCN(c2cc(F)cnc2-c2cc(C(=O)Nc3cc(Cl)cc(NS(C)(=O)=O)c3)sc2C)CC1 [Example 504]
EC50 [1, 4]: 6.86 µM

COC1CCN(c2cc(F)cnc2-c2cc(C(=O)Nc3cc(Cl)cc(NS(C)(=O)=O)c3)sc2C)C1 (centres unmarked) [Example 505]
EC50 [1, 4]: 0.219 µM

Cc1sc(C(=O)Nc2cc(Cl)cc(NS(C)(=O)=O)c2)cc1-c1ncc(F)cc1N1CCN(S(C)(=O)=O)CC1 [Example 506]
EC50 [1, 4]: 0.725 µM

CS(=O)(=O)Nc1cc(Cl)cc(NC(=O)c2cc(C(=O)N3CCN(c4ccccc4)CC3)n(-c3ccccn3)c2)c1 [Example 654]
EC50 [2]: 5310 nM

Cn1cc(C(=O)Nc2cc(Cl)cc(NS(C)(=O)=O)c2)cc1-c1ncccc1Oc1cccnc1 [Example 655]
EC50 [2]: 4520 nM

Cc1cc(C(=O)Nc2cc(Cl)cc(NS(C)(=O)=O)c2)cn1-c1ncc(S(C)(=O)=O)cn1 [Example 656]
EC50 [2]: 239 nM

Cc1cc(C(=O)Nc2cc(Cl)cc(NS(C)(=O)=O)c2)cn1-c1ncc([S+](C)[O-])cn1 (centres unmarked) [Example 657]
EC50 [2]: 817 nM

CSc1cnc(-n2cc(C(=O)Nc3cc(Cl)cc(NS(C)(=O)=O)c3)cc2C)nc1 [Example 658]
EC50 [2]: 425 nM

CN1CCN(c2csc(C(=O)Nc3cc(Cl)cc(NS(C)(=O)=O)c3)c2)CC1=O [Example 661]
EC50 [2]: > 10000 nM

CN1CCN(C(=O)c2cc(C(=O)Nc3cc(Cl)cc(NS(C)(=O)=O)c3)cn2-c2ccccn2)CC1 [Example 665]
EC50 [2]: 4990 nM

Cc1cc(C(=O)Nc2cc(Cl)cc(NS(C)(=O)=O)c2)cn1-c1ncc(OC2COC2)cn1 [Example 669]
EC50 [2]: 124 nM

Cc1cc(C(=O)Nc2cc(Cl)cc(NS(C)(=O)=O)c2)cn1-c1ccc(N(C)C2CCOC2)cn1 (centres unmarked) [Example 674]
EC50 [2]: 28.9 nM

CS(=O)(=O)Nc1cc(Cl)cc(NC(=O)c2cnn(-c3ncccc3Oc3cccnc3)c2)c1 [Example 676]
EC50 [2]: 806 nM

COCc1cc(C(=O)Nc2cc(Cl)cc(NS(C)(=O)=O)c2)cn1-c1ncccc1F [Example 682]
EC50 [2]: 149 nM

Cc1sc(C(=O)Nc2cc(Cl)cc(NS(C)(=O)=O)c2)cc1N1C(=O)N(c2ccccn2)C(C)(C)C1=O [Example 685]
EC50 [2]: 769 nM

CS(=O)(=O)Nc1cc(Cl)cc(NC(=O)c2cc3c(s2)CCC3Oc2cccnc2)c1 (centres unmarked) [Example 687]
EC50 [2]: 3560 nM

CS(=O)(=O)Nc1cc(Cl)cc(NC(=O)c2cc(-c3ccc(F)cn3)n(CCO)c2)c1 [Example 689]
EC50 [2]: 340 nM

CS(=O)(=O)Nc1cc(Cl)cc(NC(=O)c2cnn(-c3ncc(N4CC5(COC5)C4)cc3O)c2)c1 [Example 691]
EC50 [2]: 291 nM

Cc1sc(C(=O)Nc2cc(Cl)cc(NS(C)(=O)=O)c2)cc1-c1cn(C2CCOCC2)nn1 [Example 692]
EC50 [2]: 142 nM

CCOc1cnc(-n2cc(C(=O)Nc3cc(Cl)cc(NS(C)(=O)=O)c3)cc2C(F)(F)F)nc1 [Example 693]
EC50 [2]: 858 nM

Cc1sc(C(=O)Nc2cc(Cl)cc(NS(C)(=O)=O)c2)cc1-c1nccn1CCc1ccccc1 [Example 698]
EC50 [2]: 2490 nM

Cc1sc(C(=O)Nc2cc(Cl)cc(NS(C)(=O)=O)c2)cc1-c1ncc(F)cc1-c1cnco1 [Example 705]
EC50 [2]: 679 nM

CS(=O)(=O)Nc1cc(Cl)cc(NC(=O)c2cc(Cl)n(-c3ncc(F)cn3)c2)c1 [Example 709]
EC50 [2]: 1240 nM

CN(C)C(=O)c1cccc(OCc2cccc(F)c2)c1-n1cc(C(=O)Nc2cc(Cl)cc(NS(C)(=O)=O)c2)cn1 [Example 717]
EC50 [2]: > 10000 nM

CS(=O)(=O)Nc1cc(Cl)cc(NC(=O)c2cnn(-c3ncc(F)cc3OCc3cnco3)c2)c1 [Example 719]
EC50 [2]: 2280 nM

CS(=O)(=O)Nc1cc(Cl)cc(NC(=O)c2cnn(-c3c(F)cccc3OCc3cnco3)c2)c1 [Example 721]
EC50 [2]: 1570 nM

CS(=O)(=O)Nc1cc(Cl)cc(NC(=O)c2cc(C(=O)N3CCOCC3)n(-c3ccccn3)c2)c1 [Example 731]
EC50 [2]: > 10000 nM
